Test results: patent publication US6420131B1, “Use of fluorescein aryl ethers in high throughput cytochrome P450 inhibition assays” (Gentest Corporation, priority 1999, dated 2002)

Tests used:
Rat CYP1A1 = molecular target: T1, Rat CYP1A1 (Rattus norvegicus, UniProt P00185); assay: Turnover of fluorometric substrates by rat CYP1A1; conditions: substrate uM: Ia 2, AMMC 20, CEC 40, MFC 50, BFC 50, BQ 40, BzRes 50; 30 min; enzyme 50 nM (2.5 nM for CEC)
T1 sequence (P00185 1-524): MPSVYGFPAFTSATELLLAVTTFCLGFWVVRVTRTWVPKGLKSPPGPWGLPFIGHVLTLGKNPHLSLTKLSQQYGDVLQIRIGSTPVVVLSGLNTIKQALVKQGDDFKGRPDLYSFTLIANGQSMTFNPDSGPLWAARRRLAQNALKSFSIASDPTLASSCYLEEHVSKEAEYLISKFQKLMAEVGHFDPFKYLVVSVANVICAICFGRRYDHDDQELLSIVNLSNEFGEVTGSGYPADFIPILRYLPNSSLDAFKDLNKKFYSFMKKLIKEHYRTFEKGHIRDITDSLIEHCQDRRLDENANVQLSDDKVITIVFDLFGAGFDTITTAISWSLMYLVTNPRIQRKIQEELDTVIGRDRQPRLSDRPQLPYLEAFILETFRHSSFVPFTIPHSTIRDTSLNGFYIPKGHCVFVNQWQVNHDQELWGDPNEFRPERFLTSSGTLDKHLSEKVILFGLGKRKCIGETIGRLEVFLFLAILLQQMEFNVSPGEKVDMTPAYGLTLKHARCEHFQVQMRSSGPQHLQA

Rat CYP2D2 = molecular target: T2, Rat CYP2D2 (Rattus norvegicus, UniProt P10634); assay: Turnover of fluorometric substrates by rat CYP2D2
T2 sequence (P10634 1-500): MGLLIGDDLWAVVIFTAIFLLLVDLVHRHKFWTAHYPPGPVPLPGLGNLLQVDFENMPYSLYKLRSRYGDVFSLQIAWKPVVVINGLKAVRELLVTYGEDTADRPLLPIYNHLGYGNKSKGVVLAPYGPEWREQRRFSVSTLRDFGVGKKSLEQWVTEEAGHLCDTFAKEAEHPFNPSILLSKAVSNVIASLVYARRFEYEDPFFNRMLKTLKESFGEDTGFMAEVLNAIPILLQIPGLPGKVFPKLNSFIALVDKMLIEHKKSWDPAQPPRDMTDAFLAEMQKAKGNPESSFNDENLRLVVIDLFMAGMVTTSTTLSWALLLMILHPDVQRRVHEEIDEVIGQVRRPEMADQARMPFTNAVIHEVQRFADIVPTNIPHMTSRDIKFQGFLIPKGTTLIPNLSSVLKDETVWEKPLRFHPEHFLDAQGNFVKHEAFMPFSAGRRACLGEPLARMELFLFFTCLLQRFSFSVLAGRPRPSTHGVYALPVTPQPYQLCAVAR

human CYP3A4 [1] = molecular target: T3, human CYP3A4 (Homo sapiens, UniProt P08684); conditions: for Range: human
T3 sequence (P08684 whole entry): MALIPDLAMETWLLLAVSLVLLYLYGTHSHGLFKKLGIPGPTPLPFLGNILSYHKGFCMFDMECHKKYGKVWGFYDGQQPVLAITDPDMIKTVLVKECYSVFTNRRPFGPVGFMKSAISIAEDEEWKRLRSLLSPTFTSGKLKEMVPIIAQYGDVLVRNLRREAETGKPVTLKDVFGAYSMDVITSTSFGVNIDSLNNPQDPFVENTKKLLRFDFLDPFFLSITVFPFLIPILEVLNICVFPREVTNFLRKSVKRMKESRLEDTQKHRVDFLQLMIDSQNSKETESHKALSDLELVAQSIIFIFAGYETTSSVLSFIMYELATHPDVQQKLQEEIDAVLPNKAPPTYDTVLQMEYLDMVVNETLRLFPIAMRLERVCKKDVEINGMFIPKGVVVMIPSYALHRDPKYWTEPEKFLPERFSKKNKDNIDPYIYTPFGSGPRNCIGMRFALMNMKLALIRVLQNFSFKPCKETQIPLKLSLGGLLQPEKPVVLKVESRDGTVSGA

[2] = tested on: panel of Human P450 enzymes; assay: Substrate specificity, dealkylation of Compounds Ia and Ib by a panel of human P450 enzymes; assay type: biochemical; conditions: various P450s
Method: The specificity of several cytochrome P450 enzymes for the dealkylation of Compound Ia (FIG. 1) and Compound Ib (FIG. 2) was examined.
Example Compounds Ia and Ib. […] Final incubation volume was 0.2 ml.

human CYP3A4 [3] = molecular target: T3, human CYP3A4; assay: High throughput cytochrome P450 inhibition screen, CYP3A4; conditions: Absolute Mean IC50 Values
[4] = tested on: panel of Human P450 enzymes; assay: Specificity of dealkylation of CMFDE and MF by a panel of human P450 enzymes; assay type: biochemical; conditions: CYP1A1 and CYP2C19; 1 uM substrate
CYP2C8 [5] = molecular target: T4, CYP2C8 (Homo sapiens, UniProt P10632); assay: High throughput cytochrome P450 inhibition screen, CYP2C8, compound Ia as substrate
T4 sequence (P10632 1-490): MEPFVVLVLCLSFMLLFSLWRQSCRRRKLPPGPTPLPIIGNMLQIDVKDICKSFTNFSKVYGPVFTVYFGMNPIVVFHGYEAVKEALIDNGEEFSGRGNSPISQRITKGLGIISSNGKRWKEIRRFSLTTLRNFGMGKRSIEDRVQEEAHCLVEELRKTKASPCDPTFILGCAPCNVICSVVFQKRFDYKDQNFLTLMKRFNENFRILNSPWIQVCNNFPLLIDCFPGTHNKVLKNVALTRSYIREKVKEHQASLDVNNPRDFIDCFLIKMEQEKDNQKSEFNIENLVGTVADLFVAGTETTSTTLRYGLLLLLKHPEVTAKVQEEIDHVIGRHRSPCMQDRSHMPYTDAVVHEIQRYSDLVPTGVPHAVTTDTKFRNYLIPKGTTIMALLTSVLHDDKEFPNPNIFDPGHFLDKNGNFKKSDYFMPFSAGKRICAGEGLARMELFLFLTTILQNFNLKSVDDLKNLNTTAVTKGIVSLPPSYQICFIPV

CYP2C8 [6] = molecular target: T4, CYP2C8
[7] = substrate: O=C(OCc1ccccc1)c1ccccc1-c1c2ccc(=O)cc-2oc2cc(OCc3ccccc3)ccc12; assay: Enzyme kinetics of substrate turnover by cDNA-expressed CYP2C8; assay type: biochemical, human; conditions: other: CYP2C8
Method: The evaluation of compounds of Formula I were performed by measuring the kinetics of turnover using cDNA-expressed cytochromes P450 CYP3A4 and CYP2C8. Vmax and Km values are important for the optimization of the assay conditions and for setting the parameters for inhibition experiments.
Example Compound Ia. […] Final incubation volume was 0.2 ml. […] The activity was quantitated by comparing to a standard curve of fluorescein. Apparent Km and Vmax values were calculated by non-linear regression using SigmaPlot software.

CC[N+](C)(CC)CCc1c(C)c2ccc(OC)cc2oc1=O [AMMC, 3-[2-(N,N-Diethyl-N-methylamino)ethyl]-7-methoxy-4-methylcoumarin]
Turnover Numbers, CYP1A1 (Rat CYP1A1): —^b | substrate utilization (Rat CYP2D2; CYP2D2/AMMC, conditions of Table VI): 45% | Turnover Numbers, CYP2D2 (Rat CYP2D2; substrate uM: Ia 2, AMMC 20, CEC 40, MFC 50, BFC 50, BQ 40, BzRes 50, 30 min, enzyme 50 nM): 5.9 pmol product/min/pmol enzyme

NC(=O)N1c2ccccc2C=Cc2ccccc21 [Carbamazepine]
Range (human CYP3A4 [1]): 5.3

Clc1ccccc1C(c1ccccc1)(c1ccccc1)n1ccnc1 [Clotrimazole]
Range (human CYP3A4 [1]): 7.9

O=C(O)c1ccccc1-c1c2ccc(=O)cc-2oc2cc(OCc3ccccc3)ccc12 [Compound Ib, Monobenzyl Fluorescein]
signal as a substrate [2]: substantially less signal versus Compound Ia

CC[C@H]1OC(=O)[C@H](C)[C@@H](O[C@H]2C[C@@](C)(OC)[C@@H](O)[C@H](C)O2)[C@H](C)[C@@H](O[C@@H]2O[C@H](C)C[C@H](N(C)C)[C@H]2O)[C@](C)(O)C[C@@H](C)C(=O)[C@H](C)[C@@H](O)[C@]1(C)O [Erythromycin]
IC50 (human CYP3A4 [3]; BFC, substrate BFC): 4.5 µM | IC50 (human CYP3A4 [3]; BQ, substrate BQ): 54.4 µM | IC50 (human CYP3A4 [3]; BzRes, substrate BzRes): 1.8 µM | IC50 (human CYP3A4 [3]; Overall, mean over the substrates BzRes, BQ, BFC, Ia): 21.5 µM

C#C[C@]1(O)CC[C@H]2[C@@H]3CCc4cc(O)ccc4[C@H]3CC[C@@]21C [Ethynylestradiol]
Range (human CYP3A4 [1]): 4.5

COc1ccc2c(c1)Oc1cc(O)ccc1C21OC(=O)c2ccccc21 (centres unmarked) [MF, 3-O-methylfluorescein]
substrate quality based on turnover number [4]: good P450 substrate

COCC(=O)O[C@]1(CCN(C)CCCc2nc3ccccc3[nH]2)CCc2cc(F)ccc2[C@@H]1C(C)C [Mibefradil]
Range (human CYP3A4 [1]): 12

Clc1ccc(COC(Cn2ccnc2)c2ccc(Cl)cc2Cl)c(Cl)c1 (centres unmarked) [Miconazole]
Range (human CYP3A4 [1]): 11

Cc1ncc2n1-c1ccc(Cl)cc1C(c1ccccc1F)=NC2 [Midazolam]
Range (human CYP3A4 [1]): 48

CC(=O)[C@H]1CC[C@H]2[C@@H]3CCC4=CC(=O)CC[C@]4(C)[C@H]3CC[C@]12C [Progesterone]
IC50 (human CYP3A4 [3]; BQ, substrate BQ): > 200 µM | IC50 (human CYP3A4 [3]; Ia, substrate compound Ia): 11.5 µM | Absolute Mean IC50 Values, BFC (human CYP3A4 [1]): Activation | Absolute Mean IC50 Values, BzRes (human CYP3A4 [1]): Activation

CC(=O)O[C@H]1C(=O)[C@@]2(C)[C@H]([C@H](OC(=O)c3ccccc3)[C@]3(O)C[C@H](OC(=O)[C@H](O)[C@@H](NC(=O)c4ccccc4)c4ccccc4)C(C)=C1C3(C)C)[C@]1(OC(C)=O)CO[C@@H]1C[C@@H]2O [paclitaxel]
inhibition of the turnover of compound Ia (CYP2C8 [5]): inhibited the turnover of compound Ia

Nc1ccc(S(=O)(=O)Nc2ccnn2-c2ccccc2)cc1 [sulfaphenazole]
IC50 (CYP2C8 [6]): elevated

B1: CYP2C8 (Homo sapiens) (protein)
chain: MEPFVVLVLCLSFMLLFSLWRQSCRRRKLPPGPTPLPIIGNMLQIDVKDICKSFTNFSKVYGPVFTVYFGMNPIVVFHGYEAVKEALIDNGEEFSGRGNSPISQRITKGLGIISSNGKRWKEIRRFSLTTLRNFGMGKRSIEDRVQEEAHCLVEELRKTKASPCDPTFILGCAPCNVICSVVFQKRFDYKDQNFLTLMKRFNENFRILNSPWIQVCNNFPLLIDCFPGTHNKVLKNVALTRSYIREKVKEHQASLDVNNPRDFIDCFLIKMEQEKDNQKSEFNIENLVGTVADLFVAGTETTSTTLRYGLLLLLKHPEVTAKVQEEIDHVIGRHRSPCMQDRSHMPYTDAVVHEIQRYSDLVPTGVPHAVTTDTKFRNYLIPKGTTIMALLTSVLHDDKEFPNPNIFDPGHFLDKNGNFKKSDYFMPFSAGKRICAGEGLARMELFLFLTTILQNFNLKSVDDLKNLNTTAVTKGIVSLPPSYQICFIPV
notes: purchased GENTEST Corporation; host or cells: baculovirus/insect cells (microsomes, SUPERSOMES)
Km [7]: 1.4 µM | kcat [7]: 0.00367 s⁻¹
